Bridges are numbered along the chain shown (N, C = ends). Where no end group is shown, it is not given here. [ ]: non-standard residue; d: D form. S5 = C=CCCC[C@](C)(N)C(=O)O
Tests used:
[1] = tested on: HCT116 xenograft tumor (p110α H1047R); test: Peptide treatment of HCT116 xenograft tumors in athymic nude mice; format: in vivo; conditions: intratumoral 250 μg daily for 14 days
[2] = tested on: DLD1 xenograft tumor (p110α E545K); test: Peptide treatment of DLD1 xenograft tumors in athymic nude mice; format: in vivo; conditions: intratumoral 250 μg daily for 14 days, versus water control
Procedure: FIGS. 5(A-D) illustrate: (A) An athymic nude mouse with a xenograft Tumor growth of cancer cells harboring the p110α E545K Mutation (A and B) and treated with Stapled p110α E545K Mutant Peptide. Five million DLD1 cells were injected subcutaneously and bilaterally into athymic nude mice. Once the xenograft tumors reach 100-150 mm^3, the left side tumors were injected with the stapled WT peptide and the right side tumors were injected with the stapled mutant peptide daily for 14 days. Ten tumors of similar size in five other athymic nude mice were injected with an equal amount of water as controls. Tumor sizes were measured every 2 days. Representative pictures of mice injected with the peptides are shown in (A) and quantitative measurements are shown in (B). Arrows indicate tumors treated with the stapled WT peptide and the red arrows indicate tumors treated with the stapled mutant peptide. The p value was calculated using ANOVA analysis. […] All quantitative measurements are plotted as mean±SEM.
Animal experiments were approved by the Case Western Reserve University Animal Care and Use Committee. […] Tumor volume was measured with electronic calipers, and volumes were calculated as length 3 width^2/2.
Five-week-old male athymic nude mice were injected with 5 million cells subcutaneously and bilaterally. […] The tumor sizes were measured every 2 days.

Substance: H2N-SEITKQEK-D^549-FLW-S^553-HRHYC-COOH [stapled mutant peptide]
- xenograft tumor growth of HCT116 CRC cells [1]: neither the stapled WT nor the stapled mutant peptide inhibited
- DLD1 xenograft tumor growth [2]: significantly slowed

Substance: H2N-SEITEQEKD^549-FLW-S^553-HRHYC-COOH (SEITEQEK[S5]FLW[S5]HRHYC; staple 9-13; not fully specified (N-terminus, C-terminus); printed as H2N-SEITEQEKD549-FLW-S553-HRHYC-COOH; listed as Homo sapiens) [stapled WT peptide, stapled wild-type p110α counterpart of the stapled mutant peptide, used as control, reference compound]
- xenograft tumor growth of HCT116 CRC cells [1]: neither the stapled WT nor the stapled mutant peptide inhibited
- DLD1 xenograft tumor growth [2]: did not inhibit
